Experiments:
Format in all cases: biochemical
L. monocytogenes PK = molecular target: T1, L. monocytogenes PK (Listeria monocytogenes, UniProt Q8Y6W1); assay: pyruvate kinase activity assay, catalytic efficiency; settings: co-substrate PEP; only kcat/Km, in figure
T1 construct: gene pykA; construct and purification not described
T1 sequence (Q8Y6W1 1-585): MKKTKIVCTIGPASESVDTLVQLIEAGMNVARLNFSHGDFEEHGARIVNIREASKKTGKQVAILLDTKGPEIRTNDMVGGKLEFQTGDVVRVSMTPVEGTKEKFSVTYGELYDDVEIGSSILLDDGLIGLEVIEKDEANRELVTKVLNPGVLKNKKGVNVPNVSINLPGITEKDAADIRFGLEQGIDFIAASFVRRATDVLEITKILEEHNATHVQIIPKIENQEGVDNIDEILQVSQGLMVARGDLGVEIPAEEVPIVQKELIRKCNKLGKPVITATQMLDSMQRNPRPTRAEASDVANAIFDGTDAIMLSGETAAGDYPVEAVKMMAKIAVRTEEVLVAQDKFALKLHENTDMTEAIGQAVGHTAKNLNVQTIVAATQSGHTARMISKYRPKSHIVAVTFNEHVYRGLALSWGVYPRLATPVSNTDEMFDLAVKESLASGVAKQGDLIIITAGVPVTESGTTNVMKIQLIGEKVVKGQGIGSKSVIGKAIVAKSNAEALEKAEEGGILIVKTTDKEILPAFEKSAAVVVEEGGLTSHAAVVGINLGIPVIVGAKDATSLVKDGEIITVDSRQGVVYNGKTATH

E. faecalis PK = molecular target: T2, E. faecalis PK (Enterococcus faecalis, UniProt Q836R2); assay: as above; settings: co-substrate PEP; only kcat/Km, in figure
T2 construct: gene pyk; construct and purification not described
T2 sequence (Q836R2 1-585): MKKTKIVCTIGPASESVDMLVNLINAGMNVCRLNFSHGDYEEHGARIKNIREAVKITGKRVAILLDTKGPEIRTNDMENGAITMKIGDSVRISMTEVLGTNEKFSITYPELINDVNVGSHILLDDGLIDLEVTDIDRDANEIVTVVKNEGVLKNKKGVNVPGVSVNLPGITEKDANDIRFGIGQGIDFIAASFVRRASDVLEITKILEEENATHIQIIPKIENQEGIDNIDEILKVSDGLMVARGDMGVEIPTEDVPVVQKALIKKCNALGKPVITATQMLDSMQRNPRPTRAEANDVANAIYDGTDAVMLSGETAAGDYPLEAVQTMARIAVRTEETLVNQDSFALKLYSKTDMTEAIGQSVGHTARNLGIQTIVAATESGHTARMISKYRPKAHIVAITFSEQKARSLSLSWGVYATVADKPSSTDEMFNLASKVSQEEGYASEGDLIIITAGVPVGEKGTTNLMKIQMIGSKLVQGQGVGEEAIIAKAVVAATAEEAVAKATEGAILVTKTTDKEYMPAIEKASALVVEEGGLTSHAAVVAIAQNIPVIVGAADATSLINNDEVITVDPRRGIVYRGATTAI

[1] = molecular target: T3, B. subtilis pyruvate kinase (PK) (Bacillus subtilis, UniProt P80885); assay: activation of initial velocity, lactate dehydrogenase-coupled assay; settings: activator at 1 mM; NDP varied, co-substrate PEP
T3 construct: gene pyk
T3 sequence (P80885 1-585): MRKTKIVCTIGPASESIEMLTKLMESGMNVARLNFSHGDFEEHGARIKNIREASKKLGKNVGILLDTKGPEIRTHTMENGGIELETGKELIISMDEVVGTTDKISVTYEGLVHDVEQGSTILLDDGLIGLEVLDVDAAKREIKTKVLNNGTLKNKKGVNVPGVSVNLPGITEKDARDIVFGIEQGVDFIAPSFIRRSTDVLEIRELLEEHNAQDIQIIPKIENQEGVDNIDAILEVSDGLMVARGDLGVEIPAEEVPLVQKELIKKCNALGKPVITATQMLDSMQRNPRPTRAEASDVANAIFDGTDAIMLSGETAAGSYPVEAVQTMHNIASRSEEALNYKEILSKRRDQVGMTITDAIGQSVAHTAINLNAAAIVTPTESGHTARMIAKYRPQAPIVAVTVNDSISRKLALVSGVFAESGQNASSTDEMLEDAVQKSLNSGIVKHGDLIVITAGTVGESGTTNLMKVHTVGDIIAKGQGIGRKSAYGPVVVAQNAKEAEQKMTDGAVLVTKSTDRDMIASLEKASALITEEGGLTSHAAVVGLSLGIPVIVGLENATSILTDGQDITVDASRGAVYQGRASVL

| SMILES | pyruvate kinase activity assay, catalytic efficiency (L. monocytogenes PK) | pyruvate kinase activity assay, catalytic efficiency (E. faecalis PK) | activation of initial velocity, lactate dehydrogenase-coupled assay [1] |
| --- | --- | --- | --- |
| Nc1ncnc2c1ncn2[C@@H]1O[C@H](COP(=O)(O)OP(=O)(O)O)[C@@H](O)[C@H]1O [ADP] | L. monocytogenes PK can use ADP and UDP but less efficiently than GDP | E. faecalis PK is also able to use ADP with high efficiency |  |
| Nc1ncnc2c1ncn2[C@@H]1O[C@H](COP(=O)(O)O)[C@@H](O)[C@H]1O [AMP] |  |  | when AMP, a known activator of pyruvate kinase, was added, we observed a marked increase |
| Nc1nc2c(ncn2[C@@H]2O[C@H](COP(=O)(O)OP(=O)(O)O)[C@@H](O)[C@H]2O)c(=O)[nH]1 [GDP] | Enterococcus faecalis and Listeria monocytogenes also showed highest catalytic efficiencies on GDP | Enterococcus faecalis and Listeria monocytogenes also showed highest catalytic efficiencies on GDP |  |
